The source of these data is PubChem BioAssay (NCI).

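Briefly, cells in 96-well plates were exposed to five compound concentrations for 48 h, and endpoints were estimated by linear interpolation. GI50: concentration for 50% inhibition of growth. Definition used: TGI = concentration required for complete inhibition of growth.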 A value given as a limit tells only on which side of the number the result lay.

Test systems include SNB-19 CNS; 786-0 renal; NCI-H23 lung; KM12 colon; HL-60(TB) leukemia; HT29 colon; SF-295 CNS; A549 NSCLC; SW-620 colon; SNB-75 CNS.
Common to all, as to assay: growth of human tumour cells (NCI), 48 h

Consider `N#Cc1cc(-c2cc3ccccc3o2)oc1N`, for which the GI50 was 4.07 µM with SNB-19 CNS; 4.74 µM with 786-0 renal; 3.9 µM with NCI-H23 lung; 3.58 µM in the assay on KM12 colon; 3.85 µM with HL-60(TB) leukemia; 3.35 µM with HT29 colon. Moreover, the GI50 in the assay with SF-295 CNS is 2.22 µM; in the assay with A549 NSCLC, 3.7 µM; with SW-620 colon, 3.98 µM; in the assay on SNB-75 CNS, 3.61 µM. Also, the TGI in the assay with SNB-19 CNS is 31.7 µM; in the assay on 786-0 renal, 22.5 µM; in the assay with NCI-H23 lung it was 22.8 µM; in the assay on KM12 colon, 11.8 µM; in the assay with HL-60(TB) leukemia, greater than 100 µM; with HT29 colon it was 11.3 µM. In addition, the TGI with SF-295 CNS is 4.97 µM; in the assay with A549 NSCLC it was greater than 100 µM; with SW-620 colon it was 14.8 µM; with SNB-75 CNS it was 15.5 µM.
For the compound `CCOC(=O)C1CCN(S(=O)(=O)/N=C2/NC(=O)NC2=C(Cl)Cl)CC1`, the GI50 with SNB-19 CNS is 1.84 µM; in the assay with 786-0 renal, 0.545 µM; in the assay on NCI-H23 lung it was 2.12 µM; in the assay on KM12 colon, 0.254 µM; in the assay with HL-60(TB) leukemia, 1.74 µM; in the assay with HT29 colon, 2.2 µM. Further, the GI50 with SF-295 CNS is 3.56 µM; with A549 NSCLC, 4.82 µM; in the assay on SW-620 colon, 2.09 µM; in the assay with SNB-75 CNS, 2.86 µM. In addition, the TGI with SNB-19 CNS worked out at 5.11 µM; with 786-0 renal it was 6.64 µM; in the assay on NCI-H23 lung, 4.38 µM; in the assay on KM12 colon, 10.5 µM; with HL-60(TB) leukemia, 4.34 µM; with HT29 colon, 4.3 µM. For the same compound, the TGI with SF-295 CNS turned out to be 14.1 µM; with A549 NSCLC it was 17.7 µM; in the assay with SW-620 colon, 4.37 µM; in the assay with SNB-75 CNS, 14.1 µM.
Consider `COc1ccc(C(=O)c2cc(C)c(OC)c(C)c2)cc1OC(=O)CCl`, for which the GI50 in the assay on SNB-19 CNS is less than 0.01 µM; in the assay on 786-0 renal, 0.0763 µM; in the assay with NCI-H23 lung it was less than 0.0293 µM; with KM12 colon, less than 0.01 µM; in the assay with HL-60(TB) leukemia, less than 0.01 µM; with HT29 colon it was 1.06 µM. Moreover, the GI50 in the assay on SF-295 CNS is less than 0.0229 µM; in the assay with A549 NSCLC it was 0.0845 µM; in the assay on SW-620 colon, less than 0.01 µM; with SNB-75 CNS, less than 0.01 µM. The TGI in the assay with SNB-19 CNS is greater than 100 µM; with 786-0 renal, greater than 100 µM; in the assay with NCI-H23 lung, greater than 100 µM; with KM12 colon it was greater than 65.3 µM; in the assay with HL-60(TB) leukemia, less than 0.01 µM; in the assay on HT29 colon it was 14.8 µM. In addition, the TGI in the assay with SF-295 CNS was greater than 86 µM; in the assay with A549 NSCLC it was greater than 100 µM; in the assay on SW-620 colon, greater than 100 µM; with SNB-75 CNS it was greater than 100 µM.
In the case of `Cc1cc(NC(=S)SCc2ccc(F)cc2)c([N+](=O)[O-])cc1C`, the TGI is 77.1 µM in the assay on SNB-19 CNS; greater than 100 µM in the assay on 786-0 renal; 99.4 µM in the assay with NCI-H23 lung; 44.6 µM in the assay with KM12 colon; 45.4 µM with HL-60(TB) leukemia; 34.6 µM in the assay on HT29 colon. Further, the TGI in the assay with SF-295 CNS, in the assay with A549 NSCLC, in the assay with SW-620 colon and with SNB-75 CNS was greater than 100 µM throughout.
For the compound `Cc1cc2nc(C=C(C(F)(F)F)C(F)(F)F)oc2cc1C`, the TGI with SNB-19 CNS was greater than 10 µM; in the assay with 786-0 renal, 3.38 µM; with NCI-H23 lung it was 4.97 µM; in the assay with KM12 colon it was greater than 10 µM; with HL-60(TB) leukemia, 5.03 µM; in the assay on HT29 colon it was 7.76 µM. For the same compound, the TGI in the assay on SF-295 CNS is greater than 10 µM; with A549 NSCLC, greater than 10 µM; in the assay with SW-620 colon, 3.42 µM; in the assay on SNB-75 CNS, greater than 10 µM.
Take `COc1ccc(C(=O)c2cc(C)c(OC)c(C)c2)c(OC)c1O`: the GI50 in the assay with SNB-19 CNS was 0.0332 µM; with 786-0 renal, 0.667 µM; with NCI-H23 lung, 0.0879 µM; in the assay with KM12 colon, less than 0.017 µM; with HL-60(TB) leukemia it was 0.0276 µM; in the assay on HT29 colon, 3.73 µM. The GI50 is 0.0396 µM in the assay on SF-295 CNS, 0.32 µM in the assay on A549 NSCLC, 0.0366 µM with SW-620 colon and 0.026 µM in the assay on SNB-75 CNS. Moreover, the TGI was greater than 100 µM in the assay with SNB-19 CNS; greater than 100 µM in the assay with 786-0 renal; greater than 100 µM in the assay on NCI-H23 lung; greater than 100 µM with KM12 colon; 0.0876 µM in the assay with HL-60(TB) leukemia; greater than 55.6 µM with HT29 colon. Also, the TGI in the assay on SF-295 CNS, with A549 NSCLC, in the assay on SW-620 colon and in the assay on SNB-75 CNS was greater than 100 µM throughout.
On to `CC(C)c1ccc(-c2cc(-c3cn[nH]c3-c3ccccn3)ccn2)cc1`, for which the GI50 in the assay on SNB-19 CNS is 20.5 µM; in the assay on 786-0 renal, greater than 18.8 µM; in the assay with NCI-H23 lung it was 11.7 µM; with KM12 colon it was 9.83 µM; in the assay with HL-60(TB) leukemia, 11.4 µM; in the assay with HT29 colon, 6.92 µM. The GI50 in the assay on SF-295 CNS was 7.68 µM; in the assay on A549 NSCLC it was 13.7 µM; in the assay with SW-620 colon, 18 µM; in the assay with SNB-75 CNS, greater than 9.11 µM. Moreover, the TGI in the assay with SNB-19 CNS was greater than 25 µM; in the assay with 786-0 renal, greater than 25 µM; with NCI-H23 lung, greater than 25 µM; in the assay with KM12 colon it was greater than 25 µM; with HL-60(TB) leukemia, greater than 25 µM; in the assay with HT29 colon, greater than 19.6 µM. Also, the TGI was greater than 19.7 µM with SF-295 CNS, greater than 25 µM with A549 NSCLC, greater than 25 µM in the assay on SW-620 colon and greater than 25 µM in the assay with SNB-75 CNS.
In the case of `CCCN(CCC)C(=O)c1c([N+](=O)[O-])cc(C(F)(F)F)cc1[N+](=O)[O-]`, the TGI was greater than 100 µM in the assay on SNB-19 CNS; greater than 100 µM in the assay on 786-0 renal; 73.3 µM in the assay on NCI-H23 lung; greater than 100 µM in the assay on KM12 colon; 56.3 µM with HL-60(TB) leukemia; greater than 100 µM in the assay with HT29 colon. Further, the TGI was greater than 100 µM with SF-295 CNS, greater than 100 µM with A549 NSCLC, 84.3 µM in the assay on SW-620 colon and greater than 100 µM in the assay on SNB-75 CNS.
As to `CC1=CC(C)(C)N=C2SC(c3ccc(N)cc3)=NN12`, the TGI was greater than 100 µM in the assay on SNB-19 CNS; greater than 100 µM in the assay on 786-0 renal; greater than 100 µM in the assay with NCI-H23 lung; greater than 100 µM with KM12 colon; greater than 53 µM in the assay with HL-60(TB) leukemia; 98.2 µM with HT29 colon. Moreover, the TGI with SF-295 CNS was greater than 100 µM; in the assay with A549 NSCLC it was greater than 100 µM; in the assay with SW-620 colon it was greater than 61.2 µM; in the assay on SNB-75 CNS it was greater than 100 µM.
`O=C1/C(=C(/c2ccccc2)N2CCOCC2)Cc2ccccc21`: the GI50 with SNB-19 CNS was 10.6 µM; with 786-0 renal it was 1.98 µM; in the assay with NCI-H23 lung it was 2.64 µM; with KM12 colon, 2.22 µM; in the assay on HL-60(TB) leukemia, 0.235 µM; with HT29 colon, 1.83 µM. The GI50 with SF-295 CNS is 12.2 µM; with A549 NSCLC, 2.79 µM; with SW-620 colon, 1.2 µM; with SNB-75 CNS, 1.48 µM. Moreover, the TGI with SNB-19 CNS is 23.8 µM; with 786-0 renal, 3.81 µM; with NCI-H23 lung, 8.38 µM; in the assay with KM12 colon it was 5.49 µM; in the assay with HL-60(TB) leukemia it was 0.485 µM; in the assay on HT29 colon, 5.28 µM. Further, the TGI turned out to be 28 µM in the assay on SF-295 CNS, 8.35 µM in the assay on A549 NSCLC, 2.65 µM in the assay on SW-620 colon and 3.66 µM in the assay on SNB-75 CNS.
Regarding `COC(=O)C12CC3CC(CC(C(=O)O)(C3)C1)C2`, the TGI with SNB-19 CNS, in the assay with 786-0 renal, with NCI-H23 lung, in the assay on KM12 colon, in the assay with HL-60(TB) leukemia and in the assay with HT29 colon was greater than 100 µM each time. Moreover, the TGI in the assay with SF-295 CNS, in the assay on A549 NSCLC, with SW-620 colon and with SNB-75 CNS was greater than 100 µM throughout.
For `NS(=O)(=O)c1ccc(-c2ccc3c(NC(=O)C4CC4)n[nH]c3c2)cc1`, the GI50 in the assay with SNB-19 CNS, in the assay with 786-0 renal, in the assay on NCI-H23 lung, in the assay with KM12 colon, in the assay on HL-60(TB) leukemia and in the assay with HT29 colon was greater than 25 µM each time. For the same compound, the GI50 with SF-295 CNS, in the assay with A549 NSCLC, with SW-620 colon and with SNB-75 CNS was greater than 25 µM each time. For the same compound, the TGI with SNB-19 CNS, with 786-0 renal, in the assay on NCI-H23 lung, in the assay with KM12 colon, in the assay with HL-60(TB) leukemia and with HT29 colon was greater than 25 µM throughout. Besides, the TGI in the assay on SF-295 CNS, in the assay on A549 NSCLC, in the assay on SW-620 colon and in the assay with SNB-75 CNS was greater than 25 µM throughout.
`O=C1c2ccccc2C(=O)C1(O)c1c[nH]c2ccccc12`: the TGI in the assay with SNB-19 CNS, with 786-0 renal, with NCI-H23 lung, in the assay with KM12 colon, with HL-60(TB) leukemia and in the assay with HT29 colon was greater than 100 µM throughout. For the same compound, the TGI in the assay with SF-295 CNS, in the assay with A549 NSCLC, with SW-620 colon and in the assay with SNB-75 CNS was greater than 100 µM each time.
On to `COc1ccc(-c2[nH]c3ccc(OC)cc3c2/C=C(\C#N)S(=O)(=O)c2ccccc2)cc1`, for which the GI50 in the assay with SNB-19 CNS is 3.14 µM; in the assay on 786-0 renal, 2.03 µM; with NCI-H23 lung, 0.965 µM; with KM12 colon it was 0.653 µM; in the assay with HL-60(TB) leukemia, 0.812 µM; in the assay on HT29 colon it was 0.435 µM. The GI50 was 0.709 µM with SF-295 CNS, 2.01 µM with A549 NSCLC, 0.534 µM with SW-620 colon and 0.561 µM in the assay on SNB-75 CNS. The TGI with SNB-19 CNS is greater than 100 µM; with 786-0 renal it was greater than 100 µM; in the assay with NCI-H23 lung, greater than 33.3 µM; in the assay with KM12 colon, 7.69 µM; in the assay on HT29 colon, greater than 32.2 µM; with SF-295 CNS, greater than 23.9 µM. The TGI in the assay with A549 NSCLC was greater than 68.3 µM; in the assay on SW-620 colon it was greater than 100 µM; in the assay with SNB-75 CNS, 45.5 µM.
